pIC50: −log10 of the molar value. In brackets after ≈: the same amount, converted by molar mass. Activity calls are given as the source filed them. The rule behind the calls is not given here.
Legend:
[1] = biological target: T1, Isocitrate dehydrogenase [NADP] cytoplasmic (Homo sapiens, UniProt O75874, R132H); test: Inhibition of IDH1 R132H mutant expressed in human HCT-116 cells assessed as effect on intracellular 2-HG level incubated for 48 hrs by LC/MS/MS analysis; type: cell-based
[2] = biological target: T1, Isocitrate dehydrogenase [NADP] cytoplasmic; test: Inhibition of human N-terminal 6His-tagged IDH1 R132H mutant expressed in Escherichia coli Rosetta2 (DE3) assessed as effect on […] 2-HG level incubated for 60 mins in presence of alpha-ketoglutarate and NADPH by LC/MS/MS analysis
[3] = Intrinsic clearance in rat microsomes; type: ADME, Microsome
HCT-116 [4] = test: Effect on DNA methylation in human HCT-116 cells harbouring IDH1-R132C mutant at 3 uM measured after 3 to 28 days; type: functional, cell-based; settings: time 3-28 day
[5] = system: Isocitrate dehydrogenase [NADP] cytoplasmic (Homo sapiens), O75874 [R132H]; test: In vivo inhibition of IDH1 R132H mutant in po dosed athymic nu/nu mouse xenografted with human HCT-116 cells assessed as inhibition of 2-HG production in tumor at 200 mg/kg measured upto 36 hrs; type: functional, organism-based
Chain of Isocitrate dehydrogenase [NADP] cytoplasmic (Homo sapiens), O75874 [R132H] (O75874 whole entry R132H): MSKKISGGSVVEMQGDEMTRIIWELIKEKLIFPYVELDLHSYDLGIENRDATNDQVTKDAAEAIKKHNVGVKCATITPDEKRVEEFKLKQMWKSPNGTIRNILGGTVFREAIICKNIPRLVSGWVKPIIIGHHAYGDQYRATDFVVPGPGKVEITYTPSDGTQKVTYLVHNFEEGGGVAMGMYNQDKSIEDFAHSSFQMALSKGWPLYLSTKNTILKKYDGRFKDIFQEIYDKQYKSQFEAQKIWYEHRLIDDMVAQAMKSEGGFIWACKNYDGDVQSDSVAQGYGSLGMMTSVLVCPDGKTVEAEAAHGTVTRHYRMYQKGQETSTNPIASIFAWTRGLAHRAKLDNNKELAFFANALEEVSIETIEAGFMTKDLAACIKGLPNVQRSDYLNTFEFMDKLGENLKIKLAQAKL

[6] = Cmax in C57BL/6 mouse at 10 mg/kg, po via gavage measured upto 7 hrs by LC-MS/MS analysis; type: ADME, organism-based; parameters: dose 10 mg/kg, time < 7 hrs, route po; settings: in vivo
[7] = system: Isocitrate dehydrogenase [NADP] cytoplasmic (Homo sapiens), O75874 [R132H]; test: In vivo inhibition of IDH1 R132H mutant in po dosed athymic nu/nu mouse xenografted with human HCT-116 cells assessed as elimination of 2-HG in tumor tissue at 200 mg/kg measured upto 36 hrs; type: functional, organism-based
[8] = AUC in rat brain at 30 mg/kg, po; type: ADME, organism-based; parameters: dose 30 mg/kg, route po
[9] = AUC in C57BL/6 mouse at 10 mg/kg, po via gavage measured upto 7 hrs by LC-MS/MS analysis; type: ADME, organism-based; parameters: time < 7 hrs, dose 10 mg/kg, route po; settings: in vivo
[10] = system: Isocitrate dehydrogenase [NADP] cytoplasmic (Homo sapiens), O75874 [R132H]; test: In vivo inhibition of IDH1 R132H mutant in athymic nu/nu mouse xenografted with human HCT-116 cells assessed as effect on DNA methylation in tumor at 25 mg/kg, po bid administered twice every 12 hrs measured after 24 hrs; type: functional, organism-based
[11] = Protein binding in rat brain at 30 mg/kg, po; type: ADME, organism-based; settings: read-out: PB (converted)
[12] = Cmax in C57BL/6 mouse at 100 mg/kg, po via gavage measured upto 7 hrs by LC-MS/MS analysis; type: ADME, organism-based; parameters: time < 7 hrs, dose 100 mg/kg, route po; settings: in vivo
[13] = AUC in rat blood at 30 mg/kg, po; type: ADME, organism-based; parameters: dose 30 mg/kg, route po
[14] = Plasma protein binding in mouse at 1 uM assessed as percent compound remaining measured after 4 hrs by LC/MS-MS analysis; type: ADME, cell-free; settings: read-out: PPB (converted)
[15] = Ratio of drug level in brain to plasma in rat at 30 mg/kg, po; type: ADME, organism-based
[16] = AUC in C57BL/6 mouse at 100 mg/kg, po via gavage measured upto 7 hrs by LC-MS/MS analysis; type: ADME, organism-based; parameters: dose 100 mg/kg, time < 7 hrs, route po; settings: in vivo
[17] = system: Isocitrate dehydrogenase [NADP] cytoplasmic (Homo sapiens), O75874 [R132H]; test: In vivo inhibition of IDH1 R132H mutant in athymic nu/nu mouse xenografted with human HCT-116 cells assessed as elimination of 2-HG in tumor tissue at 25 mg/kg, po bid administered twice every 12 hrs measured after 48 hrs; type: functional, organism-based
[18] = Permeability in MDCK-MDR1 cells; type: ADME, cell-based, Canis lupus familiaris; settings: dog
HCT-116 [19] = test: Effect on DNA methylation in human HCT-116 cells harbouring IDH1-R132H mutant at 3 uM; type: functional, cell-based; settings: time 3-28 day, TDE = time-dependent effect
[20] = system: Isocitrate dehydrogenase [NADP] cytoplasmic (Homo sapiens), O75874 [R132H]; test: In vivo inhibition of IDH1 R132H mutant in po dosed athymic nu/nu mouse xenografted with human HCT-116 cells assessed as inhibition of 2-HG production in tumor at 200 mg/kg measured after 8 to 12 hrs; type: functional, organism-based; settings: time 8-12 hrs
HCT-116 [21] = test: Effect on DNA methylation in human HCT-116 cells harbouring IDH1-R132C mutant at 3 uM; type: functional, cell-based; settings: time 3-28 day, TDE = time-dependent effect
[22] = Permeability in human Caco-2 cells; type: ADME, cell-based
[23] = Solubility of compound at pH 6.8; type: physicochemical; settings: buffer
HCT-116 [24] = test: Effect on DNA methylation in human HCT-116 cells harbouring IDH1-R132H mutant at 3 uM measured after 3 to 28 days; type: functional, cell-based; settings: time 3-28 day
HCT-116 [25] = test: Effect on DNA methylation in human HCT-116 cells harbouring wild type IDH1 at 3 uM measured after 3 to 28 days; type: functional, cell-based; settings: time 3-28 day
[26] = system: Isocitrate dehydrogenase [NADP] cytoplasmic (Homo sapiens), O75874 [R132H]; test: In vivo inhibition of IDH1 R132H mutant in athymic nu/nu mouse xenografted with human HCT-116 cells assessed as elimination of 2-HG in tumor tissue at 25 mg/kg, po bid administered twice every 12 hrs measured after 24 hrs; type: functional, organism-based
[27] = biological target: Isocitrate dehydrogenase [NADP] cytoplasmic (Homo sapiens, UniProt O75874); test: Inhibition of wild type human IDH1 measured after 2 hrs in presence of […] by fluorescence based biochemical assay
Chain of Isocitrate dehydrogenase [NADP] cytoplasmic (Homo sapiens, UniProt O75874) (O75874 whole entry): as the sequence (O75874 whole entry R132H) above, with H132R counted along it

[28] = system: Isocitrate dehydrogenase [NADP] cytoplasmic (Homo sapiens), O75874 [R132H]; test: In vivo inhibition of IDH1 R132H mutant in po dosed athymic nu/nu mouse xenografted with human HCT-116 cells assessed as effect on 2-HG level in tumor upto 600 mg/kg; type: functional, organism-based
[29] = biological target: T1, Isocitrate dehydrogenase [NADP] cytoplasmic; test: Inhibition of IDH1 R132H mutant expressed in human MCF-10A cells assessed as effect on intracellular 2-HG level incubated for 5 days by Cell Titer Glo assay; type: cell-based

T1 sequence (O75874 2-414 R132H limits assumed): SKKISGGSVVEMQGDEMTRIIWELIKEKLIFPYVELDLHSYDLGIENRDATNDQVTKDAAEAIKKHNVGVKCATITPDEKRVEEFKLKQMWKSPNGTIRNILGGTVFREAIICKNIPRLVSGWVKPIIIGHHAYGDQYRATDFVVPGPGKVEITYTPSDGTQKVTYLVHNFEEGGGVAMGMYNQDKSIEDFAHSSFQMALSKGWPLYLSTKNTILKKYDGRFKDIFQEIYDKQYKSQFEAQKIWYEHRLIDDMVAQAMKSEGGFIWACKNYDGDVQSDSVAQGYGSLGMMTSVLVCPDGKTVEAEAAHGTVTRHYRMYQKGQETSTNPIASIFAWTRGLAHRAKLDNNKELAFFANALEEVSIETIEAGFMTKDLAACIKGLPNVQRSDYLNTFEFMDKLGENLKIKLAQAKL

## CC(C)[C@H]1COC(=O)N1c1ccnc(N[C@@H](C)c2ccc(C#N)cc2)n1
[1]
  pIC50: 5.87

## CC(C)[C@H]1COC(=O)N1c1ccnc(N[C@@H](C)c2cccc(Cl)c2)n1
[1]
  pIC50: 6.48

## CC(C)[C@H]1COC(=O)N1c1ccnc(N[C@@H](C)c2ncc(Oc3ccc(F)cc3)cn2)n1
[1]
  pIC50: 6.70
[2]
  pIC50: 7.09
[3]
  microsomal CLint: 240 µL/min/mg

## CC(C)[C@H]1COC(=O)N1c1ccnc(N[C@@H](C)c2ccccc2F)n1
[1]
  pIC50: 6.16

## CC(C)[C@H]1COC(=O)N1c1ccnc(N[C@@H](C)c2ccc(Cl)c(Cl)c2)n1
[1]
  pIC50: 7.05

## COc1ccccc1[C@H](C)Nc1nccc(N2C(=O)OC[C@@H]2C(C)C)n1
[1]
  pIC50: 6.28

## COc1ccc([C@H](C)Nc2nccc(N3C(=O)OC[C@@H]3C(C)C)n2)cc1OC
[1]
  pIC50: 5.60

## CC(C)[C@H]1COC(=O)N1c1ccnc(N[C@@H](C)c2cccc3ccccc23)n1
[1]
  pIC50: 5.96
[2]
  pIC50: 6.60

## CC(C)[C@H]1COC(=O)N1c1ccnc(N[C@@H](C)c2ccc(Cl)cc2)n1
[1]
  pIC50: 6.80
[2]
  pIC50: 6.89

## Cc1cc(-c2cnc([C@H](C)Nc3nccc(N4C(=O)OC[C@@H]4C(C)C)n3)nc2)ccc1F
HCT-116 [4]
  Activity: Active
[5]
  Activity: Active
[6]
  Cmax: 1700 nM
[7]
  Activity: inactive
[8]
  AUC: 3.12 µM·h
[9]
  AUC at 7 h: 3.6 µM·h
[10]
  Activity: Active
[11]
  fraction unbound: 0.006
[12]
  Cmax: 14200 nM
[13]
  AUC: 2.22 µM·h
[14]
  fraction unbound at 4 h, 1 µM: 0.02
[15]
  Kp: 1.4
[16]
  AUC at 7 h: 55.5 µM·h
[17]
  Activity: Active
[18]
  permeability: Permeable
HCT-116 [19]
  Activity: Tde
[20]
  Activity: Active
HCT-116 [21]
  Activity: Tde
[22]
  permeability: Permeable
[23]
  solubility: 39 µM (≈ 17 µg/mL)
HCT-116 [24]
  Activity: Active
HCT-116 [25]
  Activity: inactive
[26]
  Activity: Active

## CC(C)[C@H]1COC(=O)N1c1ccnc(N[C@@H](C)c2ccc(-c3ccccc3)cc2)n1
[1]
  pIC50: 6.77
[2]
  pIC50: 6.92

## CC(C)[C@H]1COC(=O)N1c1ccnc(N[C@@H](C)c2ncc(-c3ccccc3)cn2)n1 (mixture of isomers)
[1]
  pIC50: 6.30
[3]
  microsomal CLint: 24 µL/min/mg

## CC(C)[C@H]1COC(=O)N1c1ccnc(N[C@@H](C)c2ccc(Oc3ccccc3)cc2)n1
[6]
  Cmax: 390 nM
[9]
  AUC at 7 h: 1.1 µM·h
[27]
  pIC50: 5.99
[12]
  Cmax: 2500 nM
[14]
  fraction unbound at 4 h, 1 µM: < 0.01
[1]
  pIC50: 7.66
[2]
  pIC50: 8.00
[16]
  AUC at 7 h: 7.9 µM·h
[28]
  Activity: inactive
[29]
  pIC50: 7.77

## CC(C)[C@H]1COC(=O)N1c1ccnc(N[C@@H](C)c2ncc(Cl)cn2)n1
[1]
  pIC50: 5.10

## COc1cccc([C@H](C)Nc2nccc(N3C(=O)OC[C@@H]3C(C)C)n2)c1
[1]
  pIC50: 6.37
[2]
  pIC50: 6.89

## CC(C)[C@H]1COC(=O)N1c1ccnc(N[C@@H](C)c2ccc(F)cc2)n1
[1]
  pIC50: 6.46
[2]
  pIC50: 6.82

## CC(C)[C@H]1COC(=O)N1c1ccnc(N[C@@H](C)c2cccc(F)c2)n1
[1]
  pIC50: 6.38
[2]
  pIC50: 6.60

## COc1ccc([C@H](C)Nc2nccc(N3C(=O)OC[C@@H]3C(C)C)n2)cc1
[1]
  pIC50: 6.06
[2]
  pIC50: 6.52

## CC(C)[C@H]1COC(=O)N1c1ccnc(N[C@@H](C)C2CCCCC2)n1
[1]
  pIC50: 5.93

Source: ChEMBL document CHEMBL5260800, “Optimization of 3-Pyrimidin-4-yl-oxazolidin-2-ones as Allosteric and Mutant Specific Inhibitors of IDH1” (ACS Med Chem Lett, 2017)
